How the values were obtained:
[1] = test system: HeLa cells; assay: Mammalian cell viability assay; assay type: cell-based, Human; details: for cell death in microphotographs: 72 h
Procedure: Human cervical carcinoma-derived HeLa cells were maintained in routine culture with weekly splitting. […] All reagents were purchased from Life Technologies. Twenty-four hours before drug treatment, cells were trypsinized, resuspended in medium and counted on a Z2 Beckman Coulter counter (Beckman Coulter) in order to obtain a confluent 12-wells plate. […] Cell viability data were derived from two independent experiments and were normalized to NT sample at 24 h. NT samples were subjected only to DMSO solvent. Microphotographs were obtained through an inverted microscope (Nikon) equipped with phase contrast and dark field illumination.

[2] = test system: C. elegans; assay: Survival of uninfected C. elegans treated with the compounds; details: no infection
[3] = test system: Burkholderia mallei AHL-synthase; details: cited from earlier work

SMILES	significant effects (p < 0.05) on cell growth ([1]; HeLa, 10, 25, 50 and 100 μM, 24 h and 48 h)	cell death in microphotographs ([1]; HeLa)	C. elegans survival ([2]; 1 μM, 24 h) [%]	C. elegans survival ([2]; 1 μM, 48 h) [%]	C. elegans survival ([2]; 5 μM, 24 h) [%]	C. elegans survival ([2]; 5 μM, 48 h) [%]	C. elegans survival ([2]; 10 μM, 24 h) [%]	C. elegans survival ([2]; 10 μM, 48 h) [%]	C. elegans survival ([2]; 25 μM, 24 h) [%]	C. elegans survival ([2]; 25 μM, 48 h) [%]	cell viability reduction ([1]; HeLa, 50 μM, 48 h)	reduction in cell viability ([1]; HeLa, 100 μM, 24 h) [%]	cell death in microphotographs ([1]; HeLa, 50 and 100 μM)	activity against AHL-synthase [3]
O=C1CNC(=O)C(c2cc(OCc3ccccc3)ccc2OCc2ccccc2)N1 (stereo not shown) [6a]	observed only after 48 h treatment at a concentration of 100 μM	did not induce cell death	98 ± 6	91 ± 12	99 ± 2	98 ± 4	91 ± 8	86 ± 10	91 ± 4	91 ± 6	–	–	–	–
O=C1C=CC(=O)C(C2NC(=O)C(Cc3ccccc3)NC2=O)=C1 (stereo not shown) [8b]	–	–	98 ± 5	97 ± 6	97 ± 7	95 ± 7	99 ± 2	95 ± 10	98 ± 5	96 ± 5	approximately 50%	~20	confirmed cell death	–
CN1CCN(C(c2ccccn2)c2c(-c3ccccc3)n(O)c3ccccc23)CC1 (stereo not shown) [compound 1 from Christensen et al., reference compound]	–	–	–	–	–	–	–	–	–	–	–	–	–	very active

— PMC5007513, “Discovery of new diketopiperazines inhibiting Burkholderia cenocepacia quorum sensing in vitro and in vivo” (Scientific Reports, 2016)
